Where two headings read alike, the source gives them in different places.
Tests used:
AckKO(pMAD22) = assay: Batch fermentation in serum bottles with a hydrogenase inhibitor; format: cell-based, Clostridium tyrobutyricum; conditions: hydrogenase inhibitor added to fermentation
C. tyrobutyricum mutants = tested on: C. tyrobutyricum mutants
Excerpt: Cell growth was monitored by measuring the optical density at 600 nm (OD600) of the culture broth.

For C[n+]1ccc(-c2cc[n+](C)cc2)cc1 [methyl viologen], the “effect on acids and butanol production from glucose” value (AckKO(pMAD22)) was “significantly decreased acids production and enhanced butanol production from glucose”.

Cc1cc2nc3ccc(N(C)C)cc3nc2cc1N.Cl [neutral red] was tested, and the “effect on acids and butanol production from glucose” value (AckKO(pMAD22)) was “significantly decreased acids production and enhanced butanol production from glucose”.

With butanol the “effect on cell growth” value (C. tyrobutyricum mutants; 0.5% (v/v) butanol in RCM medium, strains studied) was “does not have any apparent effect on cell growth”, the cell growth (C. tyrobutyricum mutants; 2.0% (v/v) butanol, all strains started to grow after 2 days) was “no significant cell growth was observed for the first 24 hours” and the tolerated butanol concentration (C. tyrobutyricum mutants; after adaptation) was “up to 2.0 % (v/v)”. For the same compound, the tolerated butanol concentration (C. tyrobutyricum mutants; without adaptation) was “up to 1.5 % (v/v)”.

Reference: patent publication US9284580B2 (priority 2010, dated 2016)
